# Assay results from patent publication US5059612A, “Anti-dementia drug” (priority 1989, dated 1991).
# Read-outs that look alike come from different tables or passages of the source.
# Legend:
# [1] = test system: space recognition disorders induced by scopolamine; assay: Test on memory and study of rat using radial maize (scopolamine-induced space recognition disorder); type: in vivo
# Text: Test on memory and study of rat using radial maize
# Rats under feed control were put at the central platform (diameter: 25 cm) of an 8-way radial maize (length and width of arm: 48 cm and 10 cm, 40 cm, height from the ground) and trained until they could efficiently take the feed put on the tip of the arm. Numbers of correct choices for the arms where the rats reached for the first time, number of incorrect choices for the arms where the rats reached two or more times and running time until completion of the session were measured for 10 minutes at maximum. When the results with not less than 7 correct choices were shown in 3 continuous sessions it was estimated that acquirement of space recognition was completed. Space recognition disorder was induced in the rats by administering 0.5 mg/kg of scopolamine (i.p., 30 minutes before the session) to study each activity of (±) rolipram, (+) rolipram and (-) rolipram (all administered p.o., 60 minutes before the session).
# mouse = mouse acute toxicity test of rolipram; conditions: in vivo
# Text: (§1) The results of mouse acute toxicity test of rolipram are as follows.
# [2] = test system: cerebral ischemia-induced learning and memory disorders; assay: 3-panel runway device: effect on cerebral ischemia-induced learning and memory disorders; type: in vivo, rat; conditions: for number of incorrect responses, Session 1 / number of incorrect responses, Session 2 / number of incorrect responses, Session 3 / number of incorrect responses, Session 4 / number of incorrect responses, Session 5 / number of incorrect responses, Session 6: cerebral ischemia; for minimal effective dose: ip, i.p., read-out: dose improving the disorders induced by cerebral ischemia
# Method: A 3-panel runway device (length: 175 cm, width: 36 cm and height: 25 cm) comprises a start box, four gateways equipped with three-panel gates and a goal box in which feed are put as the reward. The panel gates were designed so that only one of three panel gates in each gateway might be passable. Training of hungry rats to go out of the start box, reach the goal box and take the feed was made by continuous 6 sessions in 2 minute intervals. The training was carried out every day with the passable panel gate being varied every day. […] The rats are used for the following test. According to the method of Pulsinelli et al., the both vertebral arteries of rat were burnt and cut under anesthesia with pentobarbital. After 24 hours, the whole carotid artery on both sides was blocked for 5 minutes under no anesthesia.
# [3] = test system: mouse in oxygen-short state; assay: Activity on survival time of mouse in oxygen-short state; type: in vivo; conditions: for Survival Time: 30 minutes before carbon dioxide, Control 195.8 ± 3.7
# Method: Activity on survival time of mouse in oxygen-short state
# Mice were put in a plastic box of 150 cm each in length, width and height, and carbon dioxide was injected from a lower inlet at a rate of 500 ml/min. The period from the start of injection to the respiratory standstill of mice was counted as the survival time. (±) Rolipram, (+) rolipram, and (-) rolipram were all intraperitoneally administered to mice 30 minutes before carbon dioxide was loaded.
# [4] = test system: memory and learning disorders induced by scopolamine; assay: 3-panel runway device: activity against memory and learning disorders induced by scopolamine; type: in vivo, rat
# Method: A 3-panel runway device (length: 175 cm, width: 36 cm and height: 25 cm) comprises a start box, four gateways equipped with three-panel gates and a goal box in which feed are put as the reward. The panel gates were designed so that only one of three panel gates in each gateway might be passable. Training of hungry rats to go out of the start box, reach the goal box and take the feed was made by continuous 6 sessions in 2 minute intervals. The training was carried out every day with the passable panel gate being varied every day. In the test, (1) time taken for the rat to reach the goal box and take the feed after it left the start box, and (2) the number of incorrect choices that the rat made trying to pass the impassable gate were recorded and measured in each session. Rats satisfying for consecutive 3 days the criterion that the total time for 6 sessions in one day was within 60 seconds, the total number of incorrect choices was under 12 and the number of incorrect responses in sessions 2 to 6 was not greater than 8 were estimated to have completely learned. The rats are used for the following test.
# [5] = test system: memory and learning deficits; assay: overall conclusion from the experimental results using mice and rats; type: in vivo
# [6] = mouse acute toxicity test of rolipram; conditions: in vivo, read-out: ED50 Value (acute toxicity)
# Text: as §1
# [7] = 0.01 mg/kg p.o., 60 minutes before session, + scopolamine 0.5 mg/kg i.p.
# [8] = 0.032 mg/kg i.p. + scopolamine 0.56 mg/kg
# [9] = 10 mg/kg p.o., 60 minutes before session, + scopolamine 0.5 mg/kg i.p.
# [10] = 1 mg/kg i.p. + scopolamine 0.56 mg/kg
# [11] = 0.02 mg/kg p.o., 60 minutes before session, + scopolamine 0.5 mg/kg i.p.
# [12] = 0.1 mg/kg i.p. + scopolamine 0.56 mg/kg
# [13] = scopolamine alone 0.56 mg/kg i.p.
smiles,measurement,setting,value
"COc1ccc(C2CNC(=O)C2)cc1OC1CCCC1 (single isomer, unassigned; (-)) [(-) Rolipram]",Number of Correct Choice,[1]; [7],6.9 ± 0.3
same,Number of Incorrect Choice,[1]; [7],3.2 ± 1.1
same,dose showing the activity of improving space recognition disorders induced by scopolamine,"[1]; rat, p.o.",0.01 mg/kg
same,safety,mouse,highly safe
same,"number of incorrect responses, Session 1",[2]; 0.032 mg/kg i.p.,5.50
same,"number of incorrect responses, Session 2",[2]; 0.032 mg/kg i.p.,2.00
same,"number of incorrect responses, Session 3",[2]; 0.032 mg/kg i.p.,2.00
same,"number of incorrect responses, Session 4",[2]; 0.032 mg/kg i.p.,1.33
same,"number of incorrect responses, Session 5",[2]; 0.032 mg/kg i.p.,1.00
same,"number of incorrect responses, Session 6",[2]; 0.032 mg/kg i.p.,0.83
same,minimal effective dose,[2]; rat,0.032 mg/kg
same,Survival Time,[3]; 0.3 mg/kg i.p.,219.8 ± 6.3 s
same,dose showing the action of prolonging the survival time,"[3]; mouse, i.p.",0.3 mg/kg
same,"number of incorrect responses, Session 1",[4]; [8],4.50
same,"number of incorrect responses, Session 2",[4]; [8],2.67
same,"number of incorrect responses, Session 3",[4]; [8],1.50
same,"number of incorrect responses, Session 4",[4]; [8],1.50
same,"number of incorrect responses, Session 5",[4]; [8],1.17
same,"number of incorrect responses, Session 6",[4]; [8],0.50
same,dose inhibiting the increase in the number of incorrect responses induced by scopolamine,"[4]; rat, i.p.",0.032 mg/kg
same,activity of improving memory and learning deficits,[5],showed the activity of improving memory and learning deficits
same,potency order in improving memory and learning deficits,[5],"more potent order of (-) rolipram, (±) rolipram and (+) rolipram"
"COc1ccc(C2CNC(=O)C2)cc1OC1CCCC1 (single isomer, unassigned; (+)) [(+) Rolipram]",Number of Correct Choice,[1]; [9],7.2 ± 0.3
same,Number of Incorrect Choice,[1]; [9],2.3 ± 1.6
same,dose showing the activity of improving space recognition disorders induced by scopolamine,"[1]; rat, p.o.",10 mg/kg
same,LD50,[6]; ip,> 2300 mg/kg
same,LD50,[6]; po,> 4000 mg/kg
same,safety,mouse,highly safe
same,"number of incorrect responses, Session 1",[2]; 1 mg/kg i.p.,5.33
same,"number of incorrect responses, Session 2",[2]; 1 mg/kg i.p.,3.67
same,"number of incorrect responses, Session 3",[2]; 1 mg/kg i.p.,2.00
same,"number of incorrect responses, Session 4",[2]; 1 mg/kg i.p.,2.83
same,"number of incorrect responses, Session 5",[2]; 1 mg/kg i.p.,1.67
same,"number of incorrect responses, Session 6",[2]; 1 mg/kg i.p.,1.50
same,improvement of the disorders induced by cerebral ischemia,"[2]; rat, 1 mg/kg i.p.",no improvement
same,Survival Time,[3]; 3.0 mg/kg i.p.,217.2 ± 5.3 s
same,dose showing the action of prolonging the survival time,"[3]; mouse, i.p.",3.0 mg/kg
same,"number of incorrect responses, Session 1",[4]; [10],4.00
same,"number of incorrect responses, Session 2",[4]; [10],4.17
same,"number of incorrect responses, Session 3",[4]; [10],3.00
same,"number of incorrect responses, Session 4",[4]; [10],2.00
same,"number of incorrect responses, Session 5",[4]; [10],1.83
same,"number of incorrect responses, Session 6",[4]; [10],1.67
same,dose inhibiting the increase in the number of incorrect responses induced by scopolamine,"[4]; rat, i.p.",1 mg/kg
same,activity of improving memory and learning deficits,[5],showed the activity of improving memory and learning deficits
same,potency order in improving memory and learning deficits,[5],"more potent order of (-) rolipram, (±) rolipram and (+) rolipram"
COc1ccc(C2CNC(=O)C2)cc1OC1CCCC1 (racemic) [(±) Rolipram],Number of Correct Choice,[1]; [11],6.9 ± 0.2
same,Number of Incorrect Choice,[1]; [11],2.3 ± 1.1
same,minimal effective dose,"[1]; Rattus norvegicus, po, rat, p.o., read-out: dose showing the activity of improving space recognition disorders induced by scopolamine",0.02 mg/kg
same,LD50,[6]; ip,1500 mg/kg
same,LD50,[6]; po,4000 mg/kg
same,safety,mouse,highly safe
same,"number of incorrect responses, Session 1",[2]; 0.1 mg/kg i.p.,4.25
same,"number of incorrect responses, Session 2",[2]; 0.1 mg/kg i.p.,3.00
same,"number of incorrect responses, Session 3",[2]; 0.1 mg/kg i.p.,2.88
same,"number of incorrect responses, Session 4",[2]; 0.1 mg/kg i.p.,1.88
same,"number of incorrect responses, Session 5",[2]; 0.1 mg/kg i.p.,1.38
same,"number of incorrect responses, Session 6",[2]; 0.1 mg/kg i.p.,1.13
same,minimal effective dose,[2]; rat,0.1 mg/kg
same,Survival Time,[3]; 1.0 mg/kg i.p.,220.3 ± 6.9 s
same,minimal effective dose,"[3]; Mus musculus, ip, mouse, i.p., read-out: dose showing the action of prolonging the survival time",1 mg/kg
same,"number of incorrect responses, Session 1",[4]; [12],5.67
same,"number of incorrect responses, Session 2",[4]; [12],3.00
same,"number of incorrect responses, Session 3",[4]; [12],1.67
same,"number of incorrect responses, Session 4",[4]; [12],1.00
same,"number of incorrect responses, Session 5",[4]; [12],1.00
same,"number of incorrect responses, Session 6",[4]; [12],1.17
same,minimal effective dose,"[4]; Rattus norvegicus, ip, rat, i.p., read-out: dose inhibiting the increase in the number of incorrect responses induced by scopolamine",0.1 mg/kg
same,activity of improving memory and learning deficits,[5],showed the activity of improving memory and learning deficits
same,potency order in improving memory and learning deficits,[5],"more potent order of (-) rolipram, (±) rolipram and (+) rolipram"
"CN1[C@@H]2C[C@@H](OC(=O)[C@H](CO)c3ccccc3)C[C@H]1[C@@H]1O[C@@H]12 [Scopolamine, scopolamine]",Number of Incorrect Choice,"[1]; scopolamine alone 0.5 mg/kg i.p., Control 0.3 ± 0.1",7.1 ± 0.9
same,Number of Correct Choice,"[1]; scopolamine alone 0.5 mg/kg i.p., Control 7.9 ± 0.2",5.9 ± 0.2
same,"number of incorrect responses, Session 1",[4]; [13],6.21
same,"number of incorrect responses, Session 2",[4]; [13],4.74
same,"number of incorrect responses, Session 3",[4]; [13],3.24
same,"number of incorrect responses, Session 4",[4]; [13],3.11
same,"number of incorrect responses, Session 5",[4]; [13],2.68
same,"number of incorrect responses, Session 6",[4]; [13],2.32
